In ChEMBL document CHEMBL4823245, “Development of an In Silico Prediction Model for P-glycoprotein Efflux Potential in Brain Capillary Endothelial Cells toward the Prediction of Brain Penetration” (J Med Chem, 2021):

Experiments:
[1] = Unbound brain-to-plasma concentration ratio in P-gp knock out Sprague-Dawley rat
[2] = Ratio of drug concentration in brain to plasma of P-gp knock out Sprague-Dawley rat
[3] = Unbound brain concentration in P-gp knock out Sprague-Dawley rat at 5 mg/ml/kg, po measured upto 4 hrs by LC-MS analysis; conditions: in vivo
[4] = Unbound plasma concentration in P-gp knock out Sprague-Dawley rat at 5 mg/ml/kg, po measured upto 4 hrs by LC-MS analysis

SMILES | Kp uu ([1]; brain/plasma) | Kp ([2]; brain) | Fu [3] | Fu ([4]; in vivo, 4 h) | Kp ([2]; brain/plasma) | fraction unbound at 4 h ([4]; plasma) | Kp uu ([1]; brain) | fraction unbound at 4 h ([4]; in vivo)
Cc1ccc(NC(=O)c2ccc(CN3CCN(C)CC3)cc2)cc1Nc1nccc(-c2cccnc2)n1 [IMATINIB] | 0.041 |  |  |  |  |  |  | 
Cc1nc2n(c(=O)c1CCN1CCC(c3noc4cc(F)ccc34)CC1)CCCC2 [RISPERIDONE] | 1.38 | 1.56 | 0.12 | 0.033 |  |  |  | 
C[C@@H](Oc1cc(-c2cnn(C3CCNCC3)c2)cnc1N)c1c(Cl)ccc(F)c1Cl [CRIZOTINIB] | 0.017 |  |  |  | 5.55 | 0.03 |  | 
Cc1c(O)cccc1C(=O)N[C@@H](CSc1ccccc1)[C@H](O)CN1C[C@H]2CCCC[C@H]2C[C@H]1C(=O)NC(C)(C)C | 0.007 |  |  |  |  | 0.003 |  | 
CC(C)(C)NC(=O)[C@@H]1C[C@@H]2CCCC[C@@H]2CN1C[C@@H](O)[C@H](Cc1ccccc1)NC(=O)[C@H](CC(N)=O)NC(=O)c1ccc2ccccc2n1 |  | 0.067 | 0.006 |  |  | 0.005 | 0.014 | 
COc1ccc(CCN2CCC(Nc3nc4ccccc4n3Cc3ccc(F)cc3)CC2)cc1 [ASTEMIZOLE] |  | 38.9 | 0.004 |  |  |  | 0.577 | 0.011
CC[C@H](CO)Nc1nc(NCc2ccccc2)c2ncn(C(C)C)c2n1 [SELICICLIB] | 0.205 |  |  |  | 1.26 | 0.048 |  | 
Cc1nc(Nc2ncc(C(=O)Nc3c(C)cccc3Cl)s2)cc(N2CCN(CCO)CC2)n1.O [DASATINIB] |  | 0.061 | 0.013 |  |  | 0.026 | 0.016 | 
Cc1nc2n(c(=O)c1CCN1CCC(c3noc4cc(F)ccc34)CC1)CCCC2O (configuration not stated) [PALIPERIDONE] | 0.443 |  |  |  | 0.867 | 0.047 |  | 
C[C@@H]1C[C@H]2[C@@H]3CCC4=CC(=O)C=C[C@]4(C)[C@@]3(F)[C@@H](O)C[C@]2(C)[C@@]1(O)C(=O)CO [DEXAMETHASONE] |  |  |  |  |  | 0.159 |  | 
CN1CC[C@H](c2c(O)cc(O)c3c(=O)cc(-c4ccccc4Cl)oc23)[C@H](O)C1 [ALVOCIDIB] | 0.234 |  |  |  | 0.451 | 0.051 |  | 
C[C@H]1O[C@@H](O[C@H]2[C@@H](O)C[C@H](O[C@H]3[C@@H](O)C[C@H](O[C@H]4CC[C@@]5(C)[C@H](CC[C@@H]6[C@@H]5C[C@@H](O)[C@]5(C)[C@@H](C7=CC(=O)OC7)CC[C@]65O)C4)O[C@@H]3C)O[C@@H]2C)C[C@H](O)[C@@H]1O [DIGOXIN] |  |  |  |  |  |  |  | 0.583
COc1cc([C@@H]2c3cc4c(cc3[C@@H](O[C@@H]3O[C@@H]5CO[C@@H](C)O[C@H]5[C@H](O)[C@H]3O)[C@H]3COC(=O)[C@H]23)OCO4)cc(OC)c1O [ETOPOSIDE] |  | 0.037 | 0.539 |  |  |  | 0.024 | 0.357
C=C[C@H]1C[N@@]2CC[C@H]1C[C@@H]2[C@@H](O)c1ccnc2ccc(OC)cc12 [QUINIDINE] |  |  |  |  |  |  | 0.065 | 
CC(C)CN(C[C@@H](O)[C@H](Cc1ccccc1)NC(=O)O[C@H]1CCOC1)S(=O)(=O)c1ccc(N)cc1 |  |  |  |  |  | 0.129 |  | 
CC[C@H]1OC(=O)[C@H](C)[C@@H](O[C@H]2C[C@@](C)(OC)[C@@H](O)[C@H](C)O2)[C@H](C)[C@@H](O[C@@H]2O[C@H](C)C[C@H](N(C)C)[C@H]2O)[C@](C)(OC)C[C@@H](C)C(=O)[C@H](C)[C@@H](O)[C@]1(C)O [CLARITHROMYCIN] |  | 1.96 | 0.113 |  |  |  | 0.014 | 0.377
CC(C)N(CCC(C(N)=O)(c1ccccc1)c1ccccn1)C(C)C (configuration not stated) [DISOPYRAMIDE] |  | 1.02 | 0.491 |  |  |  | 0.036 | 0.669
COc1ccc2c(c1)c(CC(=O)O)c(C)n2C(=O)c1ccc(Cl)cc1 [INDOMETHACIN] |  | 0.009 | 0.048 |  |  | 0.008 | 0.074 | 
Clc1ccc2c(c1)CCc1cccnc1C2=C1CCNCC1 [DESLORATADINE] | 0.061 |  |  |  |  | 0.19 |  | 
CN(C)CCc1c[nH]c2ccc(C[C@H]3COC(=O)N3)cc12 [ZOLMITRIPTAN] |  | 0.043 | 1 |  |  |  | 0.035 | 0.942
CCN(CC)CCNC(=O)c1cc(Cl)c(N)cc1OC [METOCLOPRAMIDE] |  | 5.05 | 0.817 |  |  |  | 2.45 | 0.677
O=C(O)CCCN1CCC(OC(c2ccc(Cl)cc2)c2ccccn2)CC1 (configuration not stated) | 0.018 |  |  |  | 0.031 | 0.642 |  | 
COc1cc2nc(N3CCN(C(=O)c4ccco4)CC3)nc(N)c2cc1OC [PRAZOSIN] | 0.164 |  |  |  | 0.247 | 0.264 |  | 
CCN(CC)CCNC(=O)c1c(C)[nH]c(/C=C2\C(=O)Nc3ccc(F)cc32)c1C [SUNITINIB] | 0.414 |  |  |  | 0.481 | 0.007 |  | 
O=c1[nH]c2ccccc2n1CCCN1CCC(n2c(=O)[nH]c3cc(Cl)ccc32)CC1 [DOMPERIDONE] |  |  | 0.017 |  |  |  |  | 0.029
